Values of other authors, collected in patent US4782898A, “Determining residual oil saturation using carbon 14 labeled carbon dioxide” (priority 1986, dated 1988).

| Structure (SMILES) | distribution coefficient, Ki (ratio of concentration of tracer in the oil phase to that in the water phase) |
| --- | --- |
| O=C=O [CO2, carbon dioxide] | about 2 |
| O=[14C]=O [carbon 14 labeled CO2] | about 2 |
